Laboratory results: the NIST ThermoML archive (doi:10.1021/je8008254)

Assay: xn = mol fraction of the nth substance listed
Conditions: 101 kPa, Liquid

CCCCn1cc[n+](C)c1.N#C[S-] [1-butyl-3-methylimidazolium thiocyanate] + CCCO
Conditions | mass density [kg/m3] | viscosity [mPa·s]
298.15 K, x1 = 0.0267 | 819.06 | 2.26
298.15 K, x1 = 0.0833 | 854.16 | 2.87
298.15 K, x1 = 0.1849 | 903.16 | 4.27
298.15 K, x1 = 0.2538 | 930.41 | 5.34
298.15 K, x1 = 0.3429 | 959.02 | 7.42
298.15 K, x1 = 0.4577 | 988.94 | 10.9
298.15 K, x1 = 0.5868 | 1015.47 | 16.7
298.15 K, x1 = 0.6791 | 1030.55 | 20.5
298.15 K, x1 = 0.805 | 1048.14 | 25.8
298.15 K, x1 = 0.9342 | 1062.97 | 38.6
298.15 K, x1 = 1 | 1069.79 | 51.7
308.15 K, x1 = 0.0267 | 811.18 | 1.8
308.15 K, x1 = 0.0833 | 846.63 | 2.3
308.15 K, x1 = 0.1849 | 895.99 | 3.39
308.15 K, x1 = 0.2538 | 923.49 | 4.21
308.15 K, x1 = 0.3429 | 952.34 | 5.71
308.15 K, x1 = 0.4577 | 982.5 | 8.22
308.15 K, x1 = 0.5868 | 1009.21 | 12.3
308.15 K, x1 = 0.6791 | 1024.39 | 14.8
308.15 K, x1 = 0.805 | 1042.09 | 18.1
308.15 K, x1 = 0.9342 | 1057.02 | 26.2
308.15 K, x1 = 1 | 1063.89 | 34.9
318.15 K, x1 = 0.0267 | 803.18 | 1.46
318.15 K, x1 = 0.0833 | 839 | 1.87
318.15 K, x1 = 0.1849 | 888.81 | 2.75
318.15 K, x1 = 0.2538 | 916.58 | 3.4
318.15 K, x1 = 0.3429 | 945.66 | 4.49
318.15 K, x1 = 0.4577 | 976.07 | 6.43
318.15 K, x1 = 0.5868 | 1003.01 | 9.37
318.15 K, x1 = 0.6791 | 1018.27 | 11.2
318.15 K, x1 = 0.805 | 1036.08 | 13.4
318.15 K, x1 = 0.9342 | 1051.09 | 18.7
318.15 K, x1 = 1 | 1058.02 | 24.2
328.15 K, x1 = 0.0267 | 795 | 1.2
328.15 K, x1 = 0.0833 | 831.26 | 1.55
328.15 K, x1 = 0.1849 | 881.57 | 2.27
328.15 K, x1 = 0.2538 | 909.63 | 2.8
328.15 K, x1 = 0.3429 | 939 | 3.6
328.15 K, x1 = 0.4577 | 969.67 | 5.1
328.15 K, x1 = 0.5868 | 996.84 | 7.3
328.15 K, x1 = 0.6791 | 1012.18 | 8.7
328.15 K, x1 = 0.805 | 1030.11 | 10.4
328.15 K, x1 = 0.9342 | 1045.22 | 14
328.15 K, x1 = 1 | 1052.19 | 16.7
338.15 K, x1 = 0.0267 | 786.6 | 1
338.15 K, x1 = 0.0833 | 823.39 | 1.3
338.15 K, x1 = 0.1849 | 874.27 | 1.9
338.15 K, x1 = 0.2538 | 902.7 | 2.35
338.15 K, x1 = 0.3429 | 932.34 | 3.01
338.15 K, x1 = 0.4577 | 963.3 | 4.18
338.15 K, x1 = 0.5868 | 990.7 | 5.89
338.15 K, x1 = 0.6791 | 1006.14 | 6.97
338.15 K, x1 = 0.805 | 1024.2 | 8.19
338.15 K, x1 = 0.9342 | 1039.4 | 10.9
338.15 K, x1 = 1 | 1046.43 | 12.7
348.15 K, x1 = 0.0267 | 777.98 | 0.848
348.15 K, x1 = 0.0833 | 815.39 | 1.1
348.15 K, x1 = 0.1849 | 866.94 | 1.62
348.15 K, x1 = 0.2538 | 895.73 | 2
348.15 K, x1 = 0.3429 | 925.71 | 2.56
348.15 K, x1 = 0.4577 | 956.97 | 3.46
348.15 K, x1 = 0.5868 | 984.6 | 4.81
348.15 K, x1 = 0.6791 | 1000.13 | 5.64
348.15 K, x1 = 0.805 | 1018.32 | 6.62
348.15 K, x1 = 0.9342 | 1033.61 | 8.69
348.15 K, x1 = 1 | 1040.7 | 9.98
